In patent US20080292721A1, “Bioactive acid agrichemical compositrions and use thereof” (priority 2007, published 2008):

Tested on: E. amylovora 153N
Experiment: Fire blight on crabapples
Type: in vivo
Parameters: Blossom Incidence / Shoot Incidence: unit not given here
Conditions: for Blossom Incidence: mean of counts; for Canker Size / Shoot Incidence: Day 63
Experimental: A study of the bioefficacy of the various agrichemical compositions, including bioactive acid solutions and blends thereof with an antibiotic agrichemical, were evaluated to assess their bioefficacy against fire blight on crabapples. The study was conducted on 5 year old Snow Drift crabapple trees, with each of the compositions being applied to ten trees in two-subplots of five trees, four different times: at 100% bloom-day 1, a second application was made on day 4, a third on day 11 and a final treatment on day 19. The trees were inoculated with E. amylovora […] at a concentration of 4×10^6 cells per milliliter on day 1, following drying of the treatment, with the inoculation being repeated on day 13. Evaluation for fire blight was completed on 100 blossoms for each of the subplots on day 12, day 19 and day 27. Additionally, the incidence of shoot infection and the length of […] evaluated on day 63. The test compositions were prepared by forming solutions of the bioactive agents. Two different dilutions of the MI2 bioactive were evaluated, the first employing 94.46 ml/gallon (25 ml/l) of water (5 ppm of each metal) and the second 188.9 ml/gallon (50 ml/l) of water (10 ppm of each metal). […] Finally, copper hydroxide was diluted at a rate of 1 lb/gallon (119.8 g/l). Each of the compositions and blends were spray applied at a rate of 50 gallons (189.3 l) pre acre. The results are presented as the mean of the counts.

| Structure (SMILES) | Blossom Incidence (Day 12, rate 0.49 lb/a) | Blossom Incidence (Day 19, rate 0.49 lb/a) | Blossom Incidence (Day 27, rate 0.49 lb/a) | Canker Size (rate 0.49 lb/a) | Shoot Incidence (rate 0.49 lb/a) | Blossom Incidence (Day 12, rate 5 lbs/a (2.27 kg/a)) | Blossom Incidence (Day 19, rate 5 lbs/a (2.27 kg/a)) | Blossom Incidence (Day 27, rate 5 lbs/a (2.27 kg/a)) | Canker Size (rate 5 lbs/a (2.27 kg/a)) | Shoot Incidence (rate 5 lbs/a (2.27 kg/a)) |
| --- | --- | --- | --- | --- | --- | --- | --- | --- | --- | --- |
| [H]/N=C(/N)N[C@H]1[C@H](O)[C@@H](O)[C@H](O[C@@H]2O[C@@H](C)[C@](O)(C=O)[C@H]2O[C@@H]2O[C@@H](CO)[C@H](O)[C@@H](O)[C@@H]2NC)[C@@H](N/C(N)=N\[H])[C@@H]1O [streptomycin] | 1.8 | 4.8 | 3.09 | 0.0 cm | 1.2 | – | – | – | – | – |
| [Cu+2].[OH-].[OH-] [copper hydroxide] | – | – | – | – | – | 3.1 | 2.2 | 9.0 | 0.0 cm | 1.0 |
